Among the data in patent US11135237B2, “Lipophosphonoxins of second generation, and their use” (USTAV ORGANICKE CHEMIE A BIOCHEMIE AV CR, V.V.I., priority 2016, dated 2021) are MIC, maximum tolerated dose and skin irritation values, retold here.

The subject of one series is Bacillus subtilis. The experiment in a line: MIC, microdilution method, reference strains. Format: cell-based. The following applies: read after 24/48 hours of incubation at 37° C. The method, then:
(§1) Antibacterial activity was measured using a standard microdilution method, showing the minimum inhibitory concentration (MIC) of the test sample which results in inhibition of bacterial growth. Disposable microtiter plates were used for the tests. Samples are dissolved in the brain-heart infusion broth (HiMedia Laboraties Pvt. Ltd., Czech Republic), and Mueller Hinton broth (HiMedia Laboraties, see above) at a final concentration ranging from 200 μg/ml to 1.5625 μg/ml. Plates were inoculated with a standard amount of test bacteria-inoculum density in the hole corresponds to 10^5-6 CFU/ml (colony forming units/ml). MIC values are read after 24/48 hours of incubation at 37° C. as the minimum inhibitory concentration of the test substance at which the growth of bacteria is inhibited. Minimal bactericidal concentration (MBC) is defined as the minimum concentration of the sample needed to achieve irreversible inhibition, therefore killing the bacteria after a defined time of incubation. The MBC was determined by inoculation method. 10 μl from the wells in a microplate with a defined concentration of test substance is taken with an applicator, and inoculated onto the surface of blood agar (Trios, Czech Republic) and Sabouraud agar (Trios, CR). The MBC was determined as the lowest concentration that inhibited visible growth of the bacteria used. Standard reference bacterial strains (Escherichia coli CCM 3954, Pseudomonas aeruginosa CCM 3955, Enterococcus faecalis CCM 4224, Staphylococcus aureus CCM 4223) were obtained from the Czech Collection of Microorganisms (CCM) at […] University in Brno. Streptococcus agalactiae, Bacillus subtilis were obtained from the University Hospital Olomouc. The tested microorganisms were maintained in cryobanks (ITEST plus, Czech Republic) at -80° C.
On the technique in general: Broth dilution looks for growth in wells or tubes with falling amounts of substance.

A further series relates to Streptococcus agalactiae. The experiment in a line: MIC, microdilution method, reference strains. Format: cell-based. As to conditions: read after 24/48 hours of incubation at 37° C. Here is the method: as §1
Series [1] concerns Pseudomonas aeruginosa CCM 3955. The experiment in a line: MIC, microdilution method, reference strains. The format is cell-based. As to conditions: CCM3955, read after 24/48 hours of incubation at 37° C. Here is the method: as §1
Series [2] deals with Escherichia coli CCM 3954. Kind of series: MIC, microdilution method, reference strains. Format: cell-based. The following applies: CCM3954, read after 24/48 hours of incubation at 37° C. The method, then:
as §1

Series [3] relates to Enterococcus faecalis CCM 4224. Kind of series: MIC, microdilution method, reference strains. Format: cell-based. As to conditions: CCM4224, read after 24/48 hours of incubation at 37° C. Here is the method:
as §1

The subject of series [4] is Staphylococcus aureus CCM 4223. Kind of series: MIC, microdilution method, reference strains. Format: cell-based. As to conditions: CCM4223, read after 24/48 hours of incubation at 37° C. The method, then:
as §1

A further series deals with mice. The experiment in a line: Maximum tolerated dose in mice, oral administration. Format: in vivo. Here is the method: Maximum tolerated dose in mice was very high, for the compound of Example 3 and oral administration the maximum tolerated dose was 1500 mg/kg of bodyweight.
The test system of series [5] is Stenotrophomonas matophilia S2-23. The experiment in a line: MIC, microdilution method. The format is cell-based. As to conditions: S223, read after 24/48 hours of incubation at 37° C. The method, then: (§2) Antibacterial activity was measured using a standard microdilution method, showing the minimum inhibitory concentration (MIC) of the test sample which results in inhibition of bacterial growth. Disposable microtiter plates were used for the tests. Samples are dissolved in the brain-heart infusion broth (HiMedia Laboraties Pvt. Ltd., Czech Republic), and Mueller Hinton broth (HiMedia Laboraties, see above) at a final concentration ranging from 200 μg/ml to 1.5625 μg/ml. Plates were inoculated with a standard amount of test bacteria—inoculum density in the hole corresponds to 10^5-6 CFU/ml (colony forming units/ml). MIC values are read after 24/48 hours of incubation at 37° C. as the minimum inhibitory concentration of the test substance at which the growth of bacteria is inhibited. Minimal bactericidal concentration (MBC) is defined as the minimum concentration of the sample needed to achieve irreversible inhibition, therefore killing the bacteria after a defined time of incubation. The MBC was determined by inoculation method. 10 μl from the wells in a microplate with a defined concentration of test substance is taken with an applicator, and inoculated onto the surface of blood agar (Trios, Czech Republic) and Sabouraud agar (Trios, CR). The MBC was determined as the lowest concentration that inhibited visible growth of the bacteria used.

Series [6] concerns Salmonella Enteritidis S2-25. Kind of series: MIC, microdilution method. Format: cell-based. The following applies: Salmonella enterica, read after 24/48 hours of incubation at 37° C. Here is the method:
as §2

In series [7] the test system is Burkholderia multivorans ATCC BAA-247. The experiment in a line: MIC, microdilution method. Format: cell-based. As to conditions: ATCCBAA247, read after 24/48 hours of incubation at 37° C. Here is the method: as §2
Series [8] has as its system Acinetobacter baumanii A3-08. The experiment in a line: MIC, microdilution method. Format: cell-based. As to conditions: Acinetobacter baumannii, A308; read after 24/48 hours of incubation at 37° C. The method, then:
as §2

For the next series, the system named is S. haemolyticus 16568. Kind of series: MIC, microdilution method, resistant strains. Format: cell-based. The following applies: Staphylococcus haemolyticus, fluoroquinolone-resistant strain, clinical isolate. Here is the method:
as §2

The subject of the next series is E. coli 16702. Kind of series: MIC, microdilution method, resistant strains. The format is cell-based. As to conditions: Escherichia coli, resistant strain, clinical isolate. The method, then:
as §2

The next series concerns S. aureus MRSA 4591. The experiment in a line: MIC, microdilution method, resistant strains. The format is cell-based. As to conditions: Staphylococcus aureus, methicillin-resistant strain, clinical isolate. The method, then: as §2
Another series relates to S. epidermidis 8700B. The experiment in a line: MIC, microdilution method, resistant strains. The format is cell-based. As to conditions: Staphylococcus epidermidis, methicilin-resistant strain, clinical isolate. The method, then: as §2
The next series concerns P. aeruginosa 16575. The experiment in a line: MIC, microdilution method, resistant strains. The format is cell-based. The following applies: Pseudomonas aeruginosa, resistant strain, clinical isolate. The method, then:
as §2

In the next series the test system is E. faecium VanA 419ana. The experiment in a line: MIC, microdilution method, resistant strains. Format: cell-based. The following applies: Enterococcus faecium, VANA419ANA; vancomycin-resistant strain, clinical isolate. Here is the method: as §2
For another series, the system named is rabbits. Kind of series: OECD404 test for skin irritation in rabbits. Format: in vivo.

Converted amounts (≈) assume the structure as drawn.

As for `CCCCCCCCCCCCCCOP(=O)(CCN(CCCN)CCCN)OC[C@H]1O[C@@H](n2ccc(=O)[nH]c2=O)C(O)C1O` (stereo partly shown) [Example 3, Tetradecyl-uridine-5′-yl-2-N-bis (3-aminopropyl)-2-aminoethyl phosphonate], the MIC was 0.78 µg/mL (≈ 1.18 µM) against Bacillus subtilis; 3.12 µg/mL (≈ 4.72 µM) against Streptococcus agalactiae; 0.78 µg/mL (≈ 1.18 µM) in series [1]; 6.25 µg/mL (≈ 9.44 µM) in [2]; 25 µg/mL (≈ 37.8 µM) in [3]; 6.25 µg/mL (≈ 9.44 µM) in [4]. Moreover, the MIC in [5] was found to be 50 µg/mL (≈ 75.5 µM); in series [6] it was 6.25 µg/mL (≈ 9.44 µM); in [7], 200 µg/mL (≈ 302 µM); in [8] it was 25 µg/mL (≈ 37.8 µM); in the series on S. haemolyticus 16568 it was 1.56 µg/mL (≈ 2.36 µM); against E. coli 16702, 3.12 µg/mL (≈ 4.72 µM). The minimum inhibitory concentration (MIC) was 6.25 µg/mL (≈ 9.44 µM) with S. aureus MRSA 4591, 1.56 µg/mL (≈ 2.36 µM) against S. epidermidis 8700B, 1.56 µg/mL (≈ 2.36 µM) with P. aeruginosa 16575 and 100 µg/mL (≈ 151 µM) against E. faecium VanA 419ana. For the same compound, the maximum tolerated dose with mice is 1500 mg/kg of bodyweight. The skin irritation entry in the series on rabbits was “not an irritant”.

With `CCCCCCCCCCCCCCOP(=O)(CCN(CCCNC(=N)N)CCCNC(=N)N)OC[C@H]1O[C@@H](n2ccc(=O)[nH]c2=O)C(O)C1O` (stereo partly shown) [Example 9], the MIC with Bacillus subtilis is 1.56 µg/mL (≈ 2.09 µM); against Streptococcus agalactiae, 3.12 µg/mL (≈ 4.19 µM); in [1] it was 3.12 µg/mL (≈ 4.19 µM); in [2], 3.12 µg/mL (≈ 4.19 µM); in series [3] it was 12.5 µg/mL (≈ 16.8 µM); in series [4], 6.25 µg/mL (≈ 8.38 µM). Also, the MIC in [5] came out at 12.5 µg/mL (≈ 16.8 µM); in series [6], 3.12 µg/mL (≈ 4.19 µM); in [7], 100 µg/mL (≈ 134 µM); in series [8] it was 12.5 µg/mL (≈ 16.8 µM); against S. haemolyticus 16568 it was 3.12 µg/mL (≈ 4.19 µM); in the series on E. coli 16702 it was 3.12 µg/mL (≈ 4.19 µM). Also, the MIC with S. aureus MRSA 4591 was found to be 6.25 µg/mL (≈ 8.38 µM); in the series on S. epidermidis 8700B it was 3.12 µg/mL (≈ 4.19 µM); in the series on P. aeruginosa 16575, 6.25 µg/mL (≈ 8.38 µM); in the series with E. faecium VanA 419ana, 50 µg/mL (≈ 67 µM).

By MIC is commonly meant the lowest concentration that inhibits growth of the organism.
